In data set [1] the target is FXa enzyme (Bos taurus, UniProt P00743). Description: FXa in vitro inhibition assay (fluorometric SensoLyte Factor Xa Assay Kit). The following applies: for %Inhibition FXa: inhibition percentage at 100 μM; for inhibition at 100 µM: read-out: %Inhibition FXa, inhibition percentage at 100 μM.
Experimental: The FXa inhibition capacities of the newly synthesized molecules were evaluated using the SensoLyte® 520 Factor Xa Assay Kit.
The test system of data set [2] is HEK293 cells. Description: Cell viability analysis, CCK-8 method, HEK293. The following applies: 48 h; 10 mM, 100 μM, 10 μM, 100 nM, 10 nM. It counts as cell-based, human. The method, then:
(§1) The human cell lines (HEK293 and HeLa) applied in the cell viability assays were purchased from ATCC (Manassas, VA, USA). HEK293 and HeLa cell lines were cultivated in Dulbecco’s modified Eagle medium, supplemented with 10% fetal bovine serum, 100 units/mL of penicillin and […] of streptomycin and kept at 37 °C in a humidified atmosphere containing 5% CO2. A 100-μL aliquot of adherent cells was used to seed 96-well cell culture plates at 25,000 cells/well and allowed to adhere for 16 h prior to compound addition. Cells were treated with each compound in DMEM containing 10% FBS for 48 h. Subsequently, 10 μL of Cell Counting Kit-8 reagent (CCK-8; Sigma-Aldrich, Merck KGaA, Darmstadt Germany) was added into each well and incubated for 4 h at 37 °C in a humidified atmosphere containing 5% CO2. The absorbance measurement detected the cell viability at 450 nm in a Synergy H1 microplate reader (Biotek Instruments, Winooski, VT, USA). All experiments were performed in triplicate.
(§2) Cell viability assays were performed with HeLa and HEK293 cells using the CCK-8 method. Compounds 8a, 8k, 8l and 8p were assayed with decreasing concentrations: 10 mM (1), 100 μM (2), 10 μM (3), 100 nM (4) and 10 nM (5) (Figure 6).
(§3) Figure 6 Effect of the selected compounds on cell viability using the CCK-8 assay in (A) HeLa and (B) HEK93 cell lines. Concentrations used were 10 mM (1), 100 μM (2), 10 μM (3), 100 nM (4), and 10 nM (5). The upper and lower lines define ± 2 SD limits from the average value of control wells treated only with the vehicle (DMSO 2%). All values are means ± SD (n = 3). SD: standard deviation.

Data set [3] concerns HeLa cells. As to the kind of experiment: Cell viability analysis, CCK-8 method, HeLa. It counts as cell-based, human. The following applies: 48 h; 10 mM, 100 μM, 10 μM, 100 nM, 10 nM. The procedure: as §1, §2, §3
(Formazan colour is commonly taken as a measure of viable cells.)

SMILES strings stand for the structures. Where two headings read alike, the source gives them in different places.

As usually defined, the melting point is the temperature, or range, at which the solid turns liquid. Broadly, the inhibition is how much of the control response was suppressed. As a reminder, the IC50 is the concentration that inhibits the measured activity by half.

FXa enzyme, sequence (P00743 234-492 limits assumed): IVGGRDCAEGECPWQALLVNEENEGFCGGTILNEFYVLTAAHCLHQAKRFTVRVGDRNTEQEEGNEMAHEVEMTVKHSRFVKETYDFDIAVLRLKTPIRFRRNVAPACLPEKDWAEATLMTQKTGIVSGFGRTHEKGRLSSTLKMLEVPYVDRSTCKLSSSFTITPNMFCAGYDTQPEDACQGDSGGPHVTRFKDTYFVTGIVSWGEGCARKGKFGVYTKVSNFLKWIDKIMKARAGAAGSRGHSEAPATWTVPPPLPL
FXa enzyme, sequence (P00743 41-180 partner limits assumed): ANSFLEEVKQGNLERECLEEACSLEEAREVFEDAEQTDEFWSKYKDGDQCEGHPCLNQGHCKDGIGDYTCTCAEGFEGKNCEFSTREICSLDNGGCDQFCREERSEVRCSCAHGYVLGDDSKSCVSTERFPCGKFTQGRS

Consider `CC(C)(C)OC(=O)N1CCN(c2ccc(NC(=O)Cn3cc(-c4ccc(Cl)cc4)nn3)cc2F)C(=O)C1` [Compound 8j], for which the “%Inhibition FXa” value in data set [1] was 23%.

`O=C(Cn1cc(-c2ccc(Cl)cc2)nn1)Nc1ccc(N2CCCCC2=O)c(F)c1` [Compound 8i] yielded a melting point of 302 to 303 °C. Also, the inhibition at 100 µM in data set [1] stood at 29%.

In the case of `Cc1ccc(-c2cn(CC(=O)Nc3ccc(N4CCN(C(=O)OC(C)(C)C)CC4=O)c(F)c3)nn2)cc1` [Compound 8r], the melting point is 204 to 205 °C. Besides, the inhibition at 100 µM in data set [1] worked out at 27%.

Regarding `CC(C)(C)OC(=O)N1CCN(c2ccc(NC(=O)Cn3cc(-c4ccc(F)cc4)nn3)cc2F)C(=O)C1` [Compound 8f], the “%Inhibition FXa” value in data set [1] is recorded as 44%.

For `O=C(Cn1cc(-c2ccccc2)nn1)Nc1ccc(N2CCSCC2=O)c(F)c1` [Compound 8d], the melting point fell in the range of 276 to 277 °C. Also, in data set [1], the inhibition at 100 µM came to 33%.

On to `O=C(Cn1cc(-c2ccc(Br)cc2)nn1)Nc1ccc(N2CCSCC2=O)c(F)c1` [Compound 8p], for which the “cell mortality in HEK-293 cells (cell viability, CCK-8)” value (from here on “cell mortality in HEK-293 cells”) in data set [2] is “did not show any cell mortality”. For the same molecule, the “toxicity in HeLa cells (cell viability, CCK-8)” value (shortened to “toxicity in HeLa cells”) in data set [3] was “no signs of toxicity”. Also, in data set [1], the IC50 worked out at 17.2 ± 0.8 µM and the inhibition at 100 µM was not below 50%.

Regarding `O=C(Cn1cc(-c2ccc(F)cc2)nn1)Nc1ccc(N2CCCCC2=O)c(F)c1` [Compound 8e], the inhibition at 100 µM in data set [1] turned out to be 17%.

On to `O=C(Cn1cc(-c2ccc(Br)cc2)nn1)Nc1ccc(N2CCCCC2=O)c(F)c1` [Compound 8m], for which the melting point was in the range of 300 to 301 °C. The inhibition at 100 µM in data set [1] worked out at 29%.

With `CC(C)(C)OC(=O)N1CCN(c2ccc(NC(=O)Cn3cc(-c4ccccc4)nn3)cc2F)C(=O)C1` [Compound 8b], the melting point fell in the range of 195 to 196 °C. Besides, the inhibition at 100 µM in data set [1] is 24%.

Take `O=C(Cn1cc(-c2ccccc2)nn1)Nc1ccc(N2CCCCC2=O)c(F)c1` [Compound 8a]: in data set [2], the “cell mortality in HEK-293 cells” value was “did not show any cell mortality”. The “toxicity in HeLa cells” value in data set [3] is given as “no signs of toxicity”. In data set [1], the IC50 stood at 41.2 ± 1.2 µM and the inhibition at 100 µM is not below 50%.

Molecule `Cc1ccc(-c2cn(CC(=O)Nc3ccc(N4CCSCC4=O)c(F)c3)nn2)cc1` [Compound 8t] returned a melting point of 285 to 286 °C. Further, the inhibition at 100 µM in data set [1] came to 31%.

As for `CC(C)(C)OC(=O)N1CCN(c2ccc(NC(=O)Cn3cc(-c4ccc(Br)cc4)nn3)cc2F)C(=O)C1` [Compound 8n], the “%Inhibition FXa” value in data set [1] stood at 22%.

In turn, `Cc1ccc(-c2cn(CC(=O)Nc3ccc(N4CCOCC4=O)c(F)c3)nn2)cc1` [Compound 8s] registered a melting point of 282 to 283 °C. In data set [1], the inhibition at 100 µM was 37%.

Molecule `O=C(Cn1cc(-c2ccc(F)cc2)nn1)Nc1ccc(N2CCOCC2=O)c(F)c1` [Compound 8g] registered a melting point of 273 to 274 °C. Besides, the inhibition at 100 µM in data set [1] turned out to be 36%.

In turn, `Cc1ccc(-c2cn(CC(=O)Nc3ccc(N4CCCCC4=O)c(F)c3)nn2)cc1` [Compound 8q] had a melting point of 301 to 302 °C. The inhibition at 100 µM in data set [1] is 21%.

Regarding `O=C(Cn1cc(-c2ccc(Br)cc2)nn1)Nc1ccc(N2CCOCC2=O)c(F)c1` [Compound 8o], the melting point is 302 to 303 °C. In data set [1], the inhibition at 100 µM was found to be 37%.

On to `CCOC(=O)c1ccc(OC(=O)CCCCCN=C(N)N)cc1.CS(=O)(=O)O` [Gabexate mesylate, reference compound], for which, in data set [1] (FXa, dilution series 1 nM to 100 μM, triplicates), half-maximal inhibition (IC50) required 0.34 ± 0.1 µM. The “%Inhibition FXa” value in data set [1] was 93%.

As to `O=C(Cn1cc(-c2ccc(Cl)cc2)nn1)Nc1ccc(N2CCOCC2=O)c(F)c1` [Compound 8k], the “cell mortality in HEK-293 cells” value in data set [2] was “did not show any cell mortality”. Also, the “toxicity in HeLa cells” value in data set [3] is “no signs of toxicity”. Further, in data set [1], inhibition was half-maximal at 76.2 ± 16.9 µM (IC50) and the inhibition at 100 µM is not below 50%.

`O=C(Cn1cc(-c2ccccc2)nn1)Nc1ccc(N2CCOCC2=O)c(F)c1` [Compound 8c] registered a melting point of 254 to 255 °C. The inhibition at 100 µM in data set [1] amounted to 17%.

`O=C(Cn1cc(-c2ccc(Cl)cc2)nn1)Nc1ccc(N2CCSCC2=O)c(F)c1` [Compound 8l]: the “cell mortality in HEK-293 cells” value in data set [2] is given as “did not show any cell mortality”. The “toxicity in HeLa cells” value in data set [3] is reported as “no signs of toxicity”. In data set [1], the IC50 stood at 52.9 ± 5.5 µM and the inhibition at 100 µM was not below 50%.

Consider `O=C(Cn1cc(-c2ccc(F)cc2)nn1)Nc1ccc(N2CCSCC2=O)c(F)c1` [Compound 8h], for which the melting point lay in the range of 266 to 267 °C. For the same molecule, the inhibition at 100 µM in data set [1] came to 25%.

(Values after paper PMC8780263, “Green by Design: Convergent Synthesis, Computational Analyses, and Activity Evaluation of New FXa Inhibitors Bearing Peptide Triazole Linking Units” (Pharmaceutics, 2021).)
